Legend:
[1] = human, in vivo; cited from earlier work
HIV = conditions: cited from earlier work
Anti-(D2)2 [2] = test: Specificity of the lopinavir immunoassay (cross-reactivity); type: binding, rabbit; conditions: crossreactant 10 μg/mL + 5 μg/mL Lopinavir in human serum
Experimental: An immunoassay for lopinavir was conducted on the Cobas Mira Chemistry Analyzer (Roche). […] The specificity of the immunoassay was evaluated by adding potentially crossreactant drugs to human serum and determining the increase in the apparent concentration as a result of the presence of crossreactant. […] Each sample was assayed in duplicate. Testing was performed on the Cobas Mira analyzer. The percentage concentration above 5 μg/mL of lopinavir was calculated for each crossreactant.

Anti-(D2)2 [3] = test: Homogeneous enzyme immunoassay for lopinavir, standard curve; type: binding, rabbit; conditions: Enzyme Conjugate (D2)/G6PDH Reagent
Source text: Enzyme Conjugate (D2)/G6PDH and Antibody Anti-(D2)2 were selected as exemplary materials for the development of a homogeneous enzyme immunoassay for the anti-HIV therapeutic lopinavir. Enzyme Conjugate (D2)/G6PDH Reagent, as described in Example 45, was used. Also antibody Anti-(D2)2 was used in this Example as part of an antibody reagent (“Anti-(D2)2 Antibody Reagent”) further comprising nicotinamide adenine dinucleotide, glucose-6-phosphate, sodium chloride, bulking agent, surfactant, and preservatives.
An immunoassay for lopinavir was conducted on the Cobas Mira Chemistry Analyzer (Roche). On the analyzer, 4 μL of sample plus 61 μL water were incubated for 300 sec with 150 μL of Anti-(D2)2 Antibody Reagent. Subsequently, 75 μL of the Enzyme Conjugate (D2)/G6PDH Reagent was added. After 25 sec incubation, enzyme activity was monitored by following the production of NADH spectrophotometrically at 340 nm for 50 sec.
A series of known concentrations of lopinavir standards (ranging from 0 to 10 μg/mL) were prepared gravimetrically in MES (2-(N-Morpholino)ethanesulfonic acid, 0.01 M, pH 5.5) formulated with EDTA, protein additive, detergent, antiform agent, and preservative. Similarly, quality control samples were prepared (1.0 and 5.0 μg/mL).
Lopinavir was dissolved in methanol to give a stock solution of 1000 μg/mL. Synthetic buffered calibrator matrix 10 mL aliquots were spiked to give lopinavir standards with concentrations shown in Table 4. A series of Anti-(D2)2 Antibody Reagents were prepared by adding antibody to antibody/substrate diluent. Each antibody/substrate reagent was assayed with Enzyme Conjugate (D2)/G6PDH Reagent. Calibration curves were generated on the Cobas Mira by assaying each level in duplicate.

[4] = human; cited from earlier work
[5] = rat, dog, and human primary hepatocytes; cited from earlier work
[6] = rats or dogs; cited from earlier work

| SMILES | Metabolite identified in urine [1] | Percent Increase in Apparent Lopinavir Conc. above 5 μg/mL (Anti-(D2)2 [2]) | further results |
| --- | --- | --- | --- |
| Cc1cc(OC2OC(C(=O)O)C(O)C(O)C2O)nc2c1NC(=O)c1cccnc1N2C1CC1 (stereo not shown) [2-hydroxynevirapine glucuronide] | 18.6% | – | – |
| Cc1c(OC2OC(C(=O)O)C(O)C(O)C2O)cnc2c1NC(=O)c1cccnc1N2C1CC1 (stereo not shown) [3-hydroxynevirapine glucuronide] | 25.7% | – | – |
| Cc1c(O)cnc2c1NC(=O)c1cccnc1N2C1CC1 [3-hydroxynevirapine] | 1.2% | – | – |
| COc1c(O)ccc(C(=O)N[C@@H](CSc2ccccc2)[C@H](O)CN2C[C@H]3CCCC[C@H]3C[C@H]2C(=O)NC(C)(C)C)c1C [3′-methoxy-4′-hydroxynelfinavir] | – | – | EC50 relative to nelfinavir (HIV): fivefold higher |
| O=C1Nc2c(C(=O)O)ccnc2N(C2CC2)c2ncccc21 [4-carboxy-nevirapine] | 2.4% | – | – |
| Cc1ccnc2c1NC(=O)c1cc(OC3OC(C(=O)O)C(O)C(O)C3O)cnc1N2C1CC1 (stereo not shown) [8-hydroxynevirapine glucuronide] | 1.3% | – | – |
| O=C1Nc2c(COC3OC(C(=O)O)C(O)C(O)C3O)ccnc2N(C2CC2)c2ncccc21 (stereo not shown) [12-hydroxynevirapine glucuronide] | 23.7% | – | – |
| O=C1Nc2c(CO)ccnc2N(C2CC2)c2ncccc21 [12-hydroxynevirapine] | 0.6% | – | – |
| CC(C)CN(C[C@@H](O)[C@H](Cc1ccccc1)NC(=O)O[C@H]1CCOC1)S(=O)(=O)c1ccc(N)cc1 [Amprenavir, amprenavir] | – | 1% | – |
| O=C1Nc2ccc(Cl)cc2[C@@](C#CC2CC2)(C(F)(F)F)O1 [Efavirenz, efavirenz] | – | 0% | – |
| CC(C)(C)NC(=O)[C@@H]1CN(Cc2cccnc2)CCN1C[C@@H](O)C[C@@H](Cc1ccccc1)C(=O)N[C@H]1c2ccccc2C[C@H]1O [Indinavir, indinavir] | – | 0% | – |
| Cc1cccc(C)c1OCC(=O)N[C@@H](Cc1ccccc1)[C@@H](O)C[C@H](Cc1ccccc1)NC(=O)[C@H](C(C)C)N1CCCNC1=O [Lopinavir, lopinavir] | – | – | Reaction Rate (Anti-(D2)2 [3]; Lopinavir 0.5 μg/mL): 311.1 mA/min; Reaction Rate (Anti-(D2)2 [3]; Lopinavir 1.0 μg/mL): 338.9 mA/min; Reaction Rate (Anti-(D2)2 [3]; Lopinavir 2.5 μg/mL): 390.7 mA/min; Reaction Rate (Anti-(D2)2 [3]; Lopinavir 5.0 μg/mL): 427.0 mA/min; Reaction Rate (Anti-(D2)2 [3]; Lopinavir 10.0 μg/mL): 457.1 mA/min; Metabolism by liver microsomes [4]: metabolized very extensively and rapidly |
| Cc1c(O)cccc1C(=O)N[C@@H](CSc1ccccc1)[C@H](O)CN1C[C@H]2CCCC[C@H]2C[C@H]1C(=O)NC(C)(C)C [Nelfinavir, nelfinavir] | – | 1% | – |
| CC(C)c1nc(CN(C)C(=O)N[C@H](C(=O)N[C@@H](Cc2ccccc2)C[C@H](O)[C@H](Cc2ccccc2)NC(=O)OCc2cncs2)C(C)C)cs1 [Ritonavir, ritonavir] | – | 0% | – |
| CC(C)(C)NC(=O)[C@@H]1C[C@@H]2CCCC[C@@H]2CN1C[C@@H](O)[C@H](Cc1ccccc1)NC(=O)[C@H](CC(N)=O)NC(=O)c1ccc2ccccc2n1 [Saquinavir, saquinavir] | – | 1% | – |
| Cc1ccnc2c1NC(=O)c1cccnc1N2C1CC1 [nevirapine] | – | – | Fraction of the dose excreted in urine as parent compound [1]: 2.7%; Mean plasma elimination half-life, NVP [1]: 20.0 h; Parent compound share of circulating radioactivity [1]: 75% |
| CCC[C@@]1(CCc2ccccc2)CC(O)=C([C@H](CC)c2cccc(NS(=O)(=O)c3ccc(C(F)(F)F)cn3)c2)C(=O)O1 [tipranavir] | – | – | Metabolic stability in hepatocyte incubations [5]: stable; Plasma metabolic profile [6]: only the parent drug |

Reference: patent US20090068719A1, “IMMUNOASSAYS, HAPTENS, IMMUNOGENS AND ANTIBODIES FOR ANTI-HIV THERAPEUTICS” (priority 2003, published 2009)
